The source of these data is PubChem BioAssay AID180 (DTP/NCI, 2004).

The experiment relates to BDF1 mice, Adenocarcinoma 755 s.c., tumor weight T/C. Description: NCI In Vivo Anticancer Drug Screen. Data for tumor model Adenocarcinoma 755 (subcutaneous) in B6D2F1 (BDF1) mice. As to conditions: endpoint: mean tumor weight, schedule: Q01DX011 (ip), higher = larger tumour. The method in brief:
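Readout: T/C, i.e. treated-group measurement over vehicle-control measurement. Endpoint is survival or tumor size in tumor-bearing mice given compound.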

Regarding `O=C(O)c1cc(Cl)nc(Cl)n1`, the T/C runs as follows: (dose: 31.0 mg/kg/injection, vehicle: methylcellulose (MC)) 92 % of control; (dose: 62.0 mg/kg/injection, vehicle: methylcellulose (MC)) 103 % of control; (dose: 125.0 mg/kg/injection, vehicle: methylcellulose (MC)) 105 % of control.
As to `COc1ccc(CSc2ncnc3nc[nH]c23)cc1`, the T/C (dose: 1.5 mg/kg/injection, vehicle: carboxymethylcellulose (CMC)) is 89 % of control; the T/C (dose: 3.0 mg/kg/injection, vehicle: carboxymethylcellulose (CMC)) was 88 % of control; the T/C (dose: 6.0 mg/kg/injection, vehicle: carboxymethylcellulose (CMC)) was 65 % of control; the T/C (dose: 7.8 mg/kg/injection, vehicle: methylcellulose (MC)) is 58 % of control; the T/C (dose: 15.6 mg/kg/injection, vehicle: methylcellulose (MC)) was 13 % of control; the T/C (dose: 31.2 mg/kg/injection, vehicle: methylcellulose (MC)) was 10 % of control.
On to `Cc1ccc(S(=O)(=O)OCCC(=O)N2CCN(C(=O)CCOS(=O)(=O)c3ccc(C)cc3)CC2)cc1`, for which the T/C by setting is: (dose: 22.0 mg/kg/injection, vehicle: methylcellulose (MC)) 57 % of control; (dose: 43.0 mg/kg/injection, vehicle: methylcellulose (MC)) 47 % of control; (dose: 87.0 mg/kg/injection, vehicle: methylcellulose (MC)) 80 % of control; (dose: 175.0 mg/kg/injection, vehicle: methylcellulose (MC)) 60 % of control.
On to `CCCCCn1cnc2c(SCc3ccccc3)nc(N)nc21`, for which the T/C was 68 % of control (dose: 37.5 mg/kg/injection, vehicle: saline); 78 % of control (dose: 75.0 mg/kg/injection, vehicle: saline); 77 % of control (dose: 150.0 mg/kg/injection, vehicle: saline).
For the compound `CCCCOC(OCCCC)C(OCCCC)OCCCC`, the T/C was 105 % of control (dose: 50.0 mg/kg/injection, vehicle: other); 106 % of control (dose: 100.0 mg/kg/injection, vehicle: other); 63 % of control (dose: 200.0 mg/kg/injection, vehicle: other).
